Results: patent publication US7348323B2, “Pyrrolo [2,3-c] pyridine derivatives” (Hoffmann-La Roche Inc., priority 2005, dated 2008)

Target: T1, histamine 3 receptor (H3R) (Homo sapiens, UniProt Q9Y5N1)
T1 construct: expressed in transfected cells; host or cells: CHO cells (HR3-CHO)
Assay: Competition binding assay with 3H-(R)α-methylhistamine on membranes of the human HR3-CHO cell line
Conditions: membrane of the human HR3-CHO cell line; 3H(R)α-Methylhistamine 1 nM; Ki calculated from IC50 by Cheng-Prusoff equation
Protocol: Binding Assay with ^3H-(R)α-methylhistamine
Saturation binding experiments were performed using HR3-CHO membranes prepared as described in Takahashi, K, Tokita, S., Kotani, H. (2003) J. Pharmacol. Exp. Therapeutics 307, 213-218.
An appropriate amount of membrane (60 to 80 μg protein/well) was incubated with increasing concentrations of ^3H(R)α-Methylhistamine di-hydrochloride (0.10 to 10 nM). Non specific binding was determined using a 200 fold excess of cold (R)α-Methylhistamine dihydrobromide (500 nM final concentration). The incubation was carried out at room temperature (in deep-well plates shaking for three hours). The final volume in each well was 250 μl. The incubation was followed by rapid filtration on GF/B filters (pre-soaked with 100 μl of 0.5% PEI in Tris 50 mM shaking at 200 rpm for two hours). The filtration was made using a cell-harvester and the filter plates were then washed five times with ice cold washing buffer containing 0.5 M NaCl. After harvesting, the plates were dried at 55° C. for 60 min, then we added scintillation fluid (Microscint 40, 40 microl in each well) and the amount of radioactivity on the filter was determined in Packard top-counter after shaking the plates for two hours at 200 rpm at room temperature.
Binding Buffer: 50 mM Tris-HCl pH 7.4 and 5 mM MgCl2x6H2O pH 7.4. Washing Buffer: 50 mM Tris-HCl pH 7.4 and 5 mM MgCl2x6H2O and 0.5 M NaCl pH 7.4.
Indirect measurement of affinity of H3R inverse agonists: twelve increasing concentrations (ranging from 10 μM to 0.3 nM) of the selected compounds were always tested in competition binding experiments using membrane of the human HR3-CHO cell line. An appropriate amount of protein, e.g. approximately 500 cpm binding of RAMH at Kd, were incubated for 1 hour at room temperature in 250 μl final volume in 96-well plates in presence of ^3H(R)α-Methylhistamine (1 nM final concentration=Kd). […]
All compounds were tested at a single concentration in duplicates. […] Ki's were calculated from IC50 based on Cheng-Prusoff equation (Cheng, Y, Prusoff, W H (1973) Biochem Pharmacol 22, 3099-3108).

T1 sequence (Q9Y5N1 whole entry): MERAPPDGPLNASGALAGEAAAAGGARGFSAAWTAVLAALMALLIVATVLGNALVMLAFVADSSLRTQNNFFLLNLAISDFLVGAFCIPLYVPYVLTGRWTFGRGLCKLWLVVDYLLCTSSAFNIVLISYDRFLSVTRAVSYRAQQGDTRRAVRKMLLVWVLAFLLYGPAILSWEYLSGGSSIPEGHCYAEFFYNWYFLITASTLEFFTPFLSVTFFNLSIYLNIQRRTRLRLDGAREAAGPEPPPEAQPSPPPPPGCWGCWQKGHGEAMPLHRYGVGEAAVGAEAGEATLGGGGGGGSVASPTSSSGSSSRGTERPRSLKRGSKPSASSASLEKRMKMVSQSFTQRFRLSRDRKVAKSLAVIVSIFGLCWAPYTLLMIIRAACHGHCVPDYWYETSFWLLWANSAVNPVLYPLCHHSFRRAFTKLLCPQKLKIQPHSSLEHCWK

Row | Ki | SMILES
1 | 33 nM | O=C(c1cc2cc(N3CCN(C4CCCC4)CC3)ncc2[nH]1)N1CCCC1 [Example 1, [5-(4-Cyclopentyl-piperazin-1-yl)-1H-pyrrolo[2,3-c]pyridin-2-yl]-pyrrolidin-1-yl-methanone]
2 | 27.4 nM | CCCNC(=O)c1cc2cc(N3CCN(C4CCCC4)CC3)ncc2[nH]1 [Example 13, 5-(4-cyclopentyl-piperazin-1-yl)-1H-pyrrolo[2,3-c]pyridine-2-carboxylic acid propylamide]
3 | 63.1 nM | CC(C)N1CCN(c2cc3cc(C(=O)N4CCC(F)(F)CC4)[nH]c3cn2)CC1 [Example 27, (4,4-difluoro-piperidin-1-yl)-[5-(4-isopropyl-piperazin-1-yl)-1H-pyrrolo[2,3-c]pyridin-2-yl]-methanone]
